Laboratory results from US5470737A, “Stably-transformed cells expressing human thiopurine methyltransferase” (priority 1994, dated 1995).
Entries after “also recorded” stand apart in the source; their conditions may differ.

Key:
TPMT = settings: cited from earlier work
human liver TPMT [1] = settings: read-out: Apparent Km value for 6-MP; cited from earlier work
human kidney TPMT [2] = target: T1, human kidney TPMT (Homo sapiens, UniProt P51580); settings: read-out: Apparent Km value for 6-MP; cited from earlier work
T1 construct: to assay the enzyme in human kidney preparations; host or cells: human kidney
T1 sequence (P51580 1-245): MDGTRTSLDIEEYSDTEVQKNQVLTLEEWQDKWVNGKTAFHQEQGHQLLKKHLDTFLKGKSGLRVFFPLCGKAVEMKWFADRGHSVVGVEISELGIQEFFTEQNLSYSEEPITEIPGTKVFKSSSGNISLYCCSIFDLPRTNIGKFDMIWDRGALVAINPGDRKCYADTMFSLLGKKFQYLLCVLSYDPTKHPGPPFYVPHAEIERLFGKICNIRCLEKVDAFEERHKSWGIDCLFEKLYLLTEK

[3] = test system: patients with genetically low or undetectable RBC TPMT activity; settings: patients lacking or with low TPMT activity; cited from earlier work
[4] = target: T2, TPMT expressed in COS-1 cells transfected with T84 cell TPMT cDNA (Homo sapiens, UniProt P51580); test: DMHBA inhibition of TPMT activity expressed in transfected COS-1 cells; format: biochemical; settings: COS-1 cells transfected with cDNA clone; FIG. 6
T2 sequence (P51580 1-245): T1 sequence (P51580 1-245)
Procedure: (§1) The University of Wisconsin Genetics Computer Group software package was used to analyze sequence information and to make comparisons between the sequence of the TPMT cDNA clone and the sequences of other cloned proteins. The GenBank Genetics Sequence Data Bank and the EMBL Nucleotide Sequence Database were used to search for nucleotide homologies, whereas the Swiss-Prot Protein Sequence Database was used to search for protein structural homologies. IC50 values were calculated with the GraphPAD Inplot program (GraphPAD, San Diego, Calif.).
(§2) TPMT activity in renal tissue was measured by the method of R. M. Weinshilboum et al., in Clin. Chim. Acta, 85, 323 (1978) as modified by L. C. Woodson et al., Biochem. Pharmacol., 32, 819 (1983) to assay the enzyme in human kidney preparations. […] Ado-Met as the methyl donor. Assay conditions for the measurement of TPMT in T84 human colon carcinoma cells and in COS-1 cells were identical with those used to measure the enzyme activity in human renal tissue. One unit of TPMT activity represented the formation of 1 nmol of 6-MMP per hr of incubation at 37° C.
Simian COS-1 cells were then plated in 100-mm dishes at a density of 1.5-1.8×10^6 cells/dish in DMEM with 10% fetal calf serum, and were allowed to grow overnight. Three dishes of cells were used for each transfection. […]

T84 cell TPMT = target: T3, T84 cell TPMT (Homo sapiens, UniProt P51580); test: DMHBA inhibition of TPMT activity, T84 cells; format: biochemical; settings: DMHBA 0.01 μM to 10 mM
T3 construct: Cytosol from T84 cells did contain TPMT enzymatic activity; host or cells: T84 human colon carcinoma cells
T3 sequence (P51580 1-245): T1 sequence (P51580 1-245)
Procedure: as §1, §2
T84 human colon carcinoma cells (American Type Culture Collection, Rockville, Md.) were grown to confluence in an equal volume mixture of Dulbecco's modified Eagle's medium (DMEM) and Ham's F12 media with 5% fetal calf serum. […]

human kidney TPMT [5] = target: T1, human kidney TPMT; test: DMHBA inhibition of TPMT activity, human kidney; format: biochemical; settings: DMHBA 0.01 μM to 10 mM
Procedure: as §1
Renal tissue was obtained either during autopsy or from patients undergoing clinically indicated nephrectomies. Hepatic tissue was obtained from patients who underwent clinically indicated partial hepatectomies for the removal of primary or metastatic hepatic tumors. All tissue was obtained under guidelines approved by the Mayo Clinic Institutional Review Board. Macroscopically normal tissue was stored at -80° C., conditions under which TPMT activity is stable (C. L. Szumlanski et al., Pharmacogenetics, 2, 148 (1992); J. A. Van Loon et al., Drug Met. Disposit., 18, 632 (1990)). […]
TPMT activity in renal tissue was measured by the method of R. M. Weinshilboum et al., in Clin. Chim. […]

human kidney TPMT [6] = target: T1, human kidney TPMT; settings: cited from earlier work
human liver TPMT [7] = settings: cited from earlier work

IC50 (T84 cell TPMT) [µM]	IC50 (human kidney TPMT [5]) [µM]	SMILES	substrate for TPMT (in words) (TPMT)	Km (human liver TPMT [1]) [µM]	Km (human kidney TPMT [2]) [µM]	risk of myelosuppression (in words) [3]	IC50 value, TPMT activity expressed in COS-1 cells (in words) [4]	inhibition of human kidney TPMT activity (in words) (human kidney TPMT [6])	inhibition of human liver TPMT activity (in words) (human liver TPMT [7])	IC50 (human liver TPMT [7]; read-out: DMHBA IC50) [µM]
		Sc1ncnc2nc[nH]c12 [6-MP, 6-mercaptopurine]	substrates for TPMT	580	300	even more at risk for the occurrence of severe myelosuppression; also recorded: greatly increased risk for the development of life-threatening thiopurine-induced myelosuppression				
6.6	7.8	COc1cc(C(=O)O)cc(O)c1OC [DMHBA, 3,4-dimethoxy-5-hydroxybenzoic acid]					nearly identical to that of the TPMT present in T84 cells	known to be inhibited	known to be inhibited	8.5
